Measurements taken from ChEMBL document CHEMBL4371039, “Synthesis and biological evaluation of novel analogues of Gly-l-Pro-l-Glu (GPE) as neuroprotective agents” (Bioorg Med Chem Lett, 2019).
Calls of active or inactive are those of the source. The calls are words filed in the database; no cut-off is given here.

Tests used:
THP-1 [1] = assay: Antiinflammatory activity in human THP1 cells assessed as reduction in LPS-induced IL-1beta expression at 10 uM preincubated for 2 hrs followed by LPS addition and measured after 24 hrs by Trizol reagent based RT-PCR analysis; format: functional, cell-based
THP-1 [2] = assay: Antiinflammatory activity in PMA-differentiated human THP1 cells assessed as reduction in IL4-induced CCL18 expression at 10 uM preincubated for 2 hrs followed by IL4 addition and measured after 6 hrs by Trizol reagent based RT-PCR analysis; format: functional, cell-based
THP-1 [3] = assay: Antiinflammatory activity in PMA-differentiated human THP1 cells assessed as reduction in TNFalpha expression at 10 uM preincubated for 4 hrs followed by PMA addition and measured after 20 hrs by Trizol reagent based RT-PCR analysis; format: functional, cell-based
THP-1 [4] = assay: Antiinflammatory activity in PMA-differentiated human THP1 cells assessed as reduction in MCP1 expression at 10 uM preincubated for 4 hrs followed by PMA addition and measured after 20 hrs by Trizol reagent based RT-PCR analysis; format: functional, cell-based
THP-1 [5] = assay: Antiinflammatory activity in PMA-differentiated human THP1 cells assessed as reduction in IL-18 expression at 10 uM preincubated for 4 hrs followed by PMA addition and measured after 20 hrs by Trizol reagent based RT-PCR analysis; format: functional, cell-based
THP-1 [6] = assay: Antiinflammatory activity in human THP1 cells assessed as reduction in Abeta (25 to 35 residues)-induced MCP1 expression at 10 uM preincubated for 2 hrs followed by Abeta (25 to 35 residues) addition and measured after 24 hrs by Trizol reagent based RT-PCR analysis; format: functional, cell-based
THP-1 [7] = assay: Antiinflammatory activity in human THP1 cells assessed as reduction in Abeta (25 to 35 residues)-induced TNFalpha expression at 10 uM preincubated for 2 hrs followed by Abeta (25 to 35 residues) addition and measured after 24 hrs by Trizol reagent based RT-PCR analysis; format: functional, cell-based
THP-1 [8] = assay: Antiinflammatory activity in PMA-differentiated human THP1 cells assessed as reduction in INFgamma/LPS-induced IL-1beta expression at 10 uM preincubated for 2 hrs followed by INFgamma/LPS addition and measured after 6 hrs by Trizol reagent based RT-PCR analysis; format: functional, cell-based
THP-1 [9] = assay: Immunostimulatory activity in PMA-differentiated human THP1 cells assessed as increase in TNFalpha expression at 10 uM preincubated for 4 hrs followed by PMA addition and measured after 20 hrs by Trizol reagent based RT-PCR analysis; format: functional, cell-based
THP-1 [10] = assay: Immunostimulatory activity in PMA-differentiated human THP1 cells assessed as increase in IL-18 expression at 10 uM preincubated for 4 hrs followed by PMA addition and measured after 20 hrs by Trizol reagent based RT-PCR analysis; format: functional, cell-based
THP-1 [11] = assay: Immunostimulatory activity in PMA-differentiated human THP1 cells assessed as increase in MCP1 expression at 10 uM preincubated for 4 hrs followed by PMA addition and measured after 20 hrs by Trizol reagent based RT-PCR analysis; format: functional, cell-based
THP-1 [12] = assay: Antiinflammatory activity in PMA-differentiated human THP1 cells assessed as reduction in INFgamma/LPS-induced IL-8 expression at 10 uM preincubated for 2 hrs followed by INFgamma/LPS addition and measured after 6 hrs by Trizol reagent based RT-PCR analysis; format: functional, cell-based
THP-1 [13] = assay: Immunostimulatory activity in PMA-differentiated human THP1 cells assessed as increase in IL-1beta expression at 10 uM preincubated for 4 hrs followed by PMA addition and measured after 20 hrs by Trizol reagent based RT-PCR analysis; format: functional, cell-based
THP-1 [14] = assay: Antiinflammatory activity in PMA-differentiated human THP1 cells assessed as reduction in IL4-induced CCL22 expression at 10 uM preincubated for 2 hrs followed by IL4 addition and measured after 6 hrs by Trizol reagent based RT-PCR analysis; format: functional, cell-based
THP-1 [15] = assay: Antiinflammatory activity in human THP1 cells assessed as reduction in LPS-induced IL18 expression at 10 uM preincubated for 2 hrs followed by LPS addition and measured after 24 hrs by Trizol reagent based RT-PCR analysis; format: functional, cell-based
THP-1 [16] = assay: Antiinflammatory activity in PMA-differentiated human THP1 cells assessed as reduction in IL4-induced IL-10 expression at 10 uM preincubated for 2 hrs followed by IL4 addition and measured after 6 hrs by Trizol reagent based RT-PCR analysis; format: functional, cell-based
THP-1 [17] = assay: Antiinflammatory activity in PMA-differentiated human THP1 cells assessed as reduction in IL-1beta expression at 10 uM preincubated for 4 hrs followed by PMA addition and measured after 20 hrs by Trizol reagent based RT-PCR analysis; format: functional, cell-based
THP-1 [18] = assay: Antiinflammatory activity in human THP1 cells assessed as reduction in Abeta (25 to 35 residues)-induced IL18 expression at 10 uM preincubated for 2 hrs followed by Abeta (25 to 35 residues) addition and measured after 24 hrs by Trizol reagent based RT-PCR analysis; format: functional, cell-based
THP-1 [19] = assay: Antiinflammatory activity in PMA-differentiated human THP1 cells assessed as reduction in LPS-induced IL-1beta expression at 10 uM preincubated for 2 hrs followed by LPS addition and measured after 24 hrs by Trizol reagent based RT-PCR analysis; format: functional, cell-based
THP-1 [20] = assay: Neuroprotective activity against H2O2-induced cell death in human THP1 cells assessed as cell survival at 10 uM preincubated for 2 hrs followed by H2O2 addition and measured after 24 hrs by MTT assay (reference value: 43%); format: functional; details: read-out: Survival
THP-1 [21] = assay: Antiinflammatory activity in PMA-differentiated human THP1 cells assessed as reduction in LPS-induced IL18 expression at 10 uM preincubated for 2 hrs followed by LPS addition and measured after 24 hrs by Trizol reagent based RT-PCR analysis; format: functional, cell-based
THP-1 [22] = assay: Cytotoxicity against human THP1 cells assessed as effect on cell viability up to 400 uM measured after 6 to 48 hrs by MTT assay; format: cell-based
THP-1 [23] = assay: Antiinflammatory activity in human THP1 cells assessed as reduction in LPS-induced TNFalpha expression at 10 uM preincubated for 2 hrs followed by LPS addition and measured after 24 hrs by Trizol reagent based RT-PCR analysis; format: functional, cell-based
THP-1 [24] = assay: Immunostimulatory activity in PMA-differentiated human THP1 cells assessed as increase in LPS-induced IL-4 expression at 10 uM preincubated for 2 hrs followed by LPS addition and measured after 24 hrs by Trizol reagent based RT-PCR analysis; format: functional, cell-based
[25] = Solubility of the compound in water; format: physicochemical; details: buffer
THP-1 [26] = assay: Immunostimulatory activity in PMA-differentiated human THP1 cells assessed as increase in LPS-induced IL-10 expression at 10 uM preincubated for 2 hrs followed by LPS addition and measured after 24 hrs by Trizol reagent based RT-PCR analysis; format: functional, cell-based
[27] = Half life in human plasma; format: ADME, cell-free
THP-1 [28] = assay: Antiinflammatory activity in human THP1 cells assessed as reduction in Abeta (25 to 35 residues)-induced IL-1beta expression at 10 uM preincubated for 2 hrs followed by Abeta (25 to 35 residues) addition and measured after 24 hrs by Trizol reagent based RT-PCR analysis; format: functional, cell-based
THP-1 [29] = assay: Neuroprotective activity against Abeta (25 to 35 residues)-induced cell death in human THP1 cells assessed as cell survival at 10 uM preincubated for 2 hrs followed by Abeta (25 to 35 residues) addition and measured after 24 hrs by MTT assay (reference value: 40%); format: functional; details: read-out: Survival

SMILES	Activity (THP-1 [1])	Activity (THP-1 [3])	Activity (THP-1 [4])	Activity (THP-1 [5])	Activity (THP-1 [7])	Activity (THP-1 [15])	Activity (THP-1 [17])	Activity (THP-1 [18])	viability at 10 µM (THP-1 [20])	Activity (THP-1 [22])	solubility [25]	half-life [27]	other results
NCCN1CCC[C@H]1C(=O)N[C@@H](CCC(=O)O)C(=O)O	Active	Active	Active	Active	Active	inactive	Active	inactive	–	–	–	–	Activity (THP-1 [2]): inactive; Activity (THP-1 [6]): Active; Activity (THP-1 [8]): Active; Activity (THP-1 [9]): Active; Activity (THP-1 [10]): Active; Activity (THP-1 [11]): Active; Activity (THP-1 [12]): Active; Activity (THP-1 [13]): Active; Activity (THP-1 [14]): inactive; Activity (THP-1 [16]): inactive
NCC(=O)N1CCC[C@H]1C(=O)N[C@@H](CCC(=O)O)C(=O)O.O=C(O)C(F)(F)F.O=C(O)C(F)(F)F	Active	Active	Active	Active	inactive	inactive	Active	inactive	100%	Non-Toxic	Soluble	4.5 h	Activity (THP-1 [19]): Active; Activity (THP-1 [21]): Active; Activity (THP-1 [23]): Active; Activity (THP-1 [24]): Active; Activity (THP-1 [26]): Active; Activity (THP-1 [28]): Active
NCCN1CCC[C@H]1C(=O)N[C@@H](CCC(=O)O)C(=O)O.O=C(O)C(F)(F)F.O=C(O)C(F)(F)F	–	–	–	–	–	–	–	–	90%	Non-Toxic	Soluble	11.8 h	–
NCCN1CCC[C@H]1C(=O)N[C@@H](CCC(=O)O)C(=O)O.O=C(O)C(F)(F)F	–	–	–	–	–	–	–	–	–	Non-Toxic	Soluble	6.6 h	viability at 10 µM (THP-1 [29]): 76%
